Results published in US20230365537A1, “POLO LIKE KINASE 4 INHIBITORS” (ORIC Pharmaceuticals, Inc., priority 2021, published 2023).

What was measured:
[1] = biological target: human recombinant Aurora B (Homo sapiens (Human), UniProt Q96GD4); assay: Aurora B Kinase Biochemical Assay (ADP-Glo); conditions: ratio of Aurora B IC50 to PLK4 IC50 (selectivity)
How it was run: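 IC50 derived by four-parameter nonlinear fit of ADP-Glo luminescence (ADP produced). Compound was preincubated 15 min at RT with 20 nM recombinant human Aurora B, in 50 mM HEPES pH 7.5, 10 mM MgCl2, 1 mM EGTA, 1 mM DTT, 0.01% Brij-35/BSA.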

CHP-134 cells = assay: CHP134 CellTiter-Glo (CTG) Assay; format: cell-based; conditions: 5 days, viable cells by CellTiter-Glo
Protocol: Cells were seeded (200 cells/well) in 384-well plates for 16 hours. On day two, nine serial 1:3 compound dilutions were made in DMSO in a 96-well plate. The compounds were then further diluted into growth media using a BRAVO robot (Agilent, Santa Clara, CA). The diluted compounds were then added to quadruplicate wells in the 384-well cell plate and incubated at 37° C. and 5% CO2. After 5 days, relative numbers of viable cells were measured by luminescence using CellTiter-Glo® (Promega) according to the manufacturer’s instructions and read on a SPARK Multimode Microplate Reader (Tecan, Mannedorf Switzerland). The IC50 calculations for the values reported in Table 2 were carried out using Prism 6.0 software (GraphPad, San Diego).

[2] = biological target: human recombinant Aurora A (Homo sapiens (Human), UniProt O14965); assay: Aurora A Kinase Biochemical Assay (ADP-Glo); conditions: ratio of Aurora A IC50 to PLK4 IC50 (selectivity)
human recombinant Aurora A, sequence (O14965 whole entry): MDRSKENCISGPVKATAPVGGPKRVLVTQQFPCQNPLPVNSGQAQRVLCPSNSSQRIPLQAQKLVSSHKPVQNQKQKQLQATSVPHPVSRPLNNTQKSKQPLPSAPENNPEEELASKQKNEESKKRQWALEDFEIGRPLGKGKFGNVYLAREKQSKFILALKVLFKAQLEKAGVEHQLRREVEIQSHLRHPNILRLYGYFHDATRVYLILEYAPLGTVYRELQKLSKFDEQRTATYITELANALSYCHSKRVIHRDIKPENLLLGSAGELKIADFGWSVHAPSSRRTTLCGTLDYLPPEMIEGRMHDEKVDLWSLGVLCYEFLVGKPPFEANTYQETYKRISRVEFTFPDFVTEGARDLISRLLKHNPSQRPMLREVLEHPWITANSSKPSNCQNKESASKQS

human recombinant PLK4 = human recombinant PLK4 (Homo sapiens (Human), UniProt O00444); assay: PLK4 Biochemical Assay (ADP-Glo); conditions: 0.5 nM PLK4, 8.0 µM ATP, 4.7 µM MBP, 6 hours at RT
human recombinant PLK4, sequence (O00444 whole entry): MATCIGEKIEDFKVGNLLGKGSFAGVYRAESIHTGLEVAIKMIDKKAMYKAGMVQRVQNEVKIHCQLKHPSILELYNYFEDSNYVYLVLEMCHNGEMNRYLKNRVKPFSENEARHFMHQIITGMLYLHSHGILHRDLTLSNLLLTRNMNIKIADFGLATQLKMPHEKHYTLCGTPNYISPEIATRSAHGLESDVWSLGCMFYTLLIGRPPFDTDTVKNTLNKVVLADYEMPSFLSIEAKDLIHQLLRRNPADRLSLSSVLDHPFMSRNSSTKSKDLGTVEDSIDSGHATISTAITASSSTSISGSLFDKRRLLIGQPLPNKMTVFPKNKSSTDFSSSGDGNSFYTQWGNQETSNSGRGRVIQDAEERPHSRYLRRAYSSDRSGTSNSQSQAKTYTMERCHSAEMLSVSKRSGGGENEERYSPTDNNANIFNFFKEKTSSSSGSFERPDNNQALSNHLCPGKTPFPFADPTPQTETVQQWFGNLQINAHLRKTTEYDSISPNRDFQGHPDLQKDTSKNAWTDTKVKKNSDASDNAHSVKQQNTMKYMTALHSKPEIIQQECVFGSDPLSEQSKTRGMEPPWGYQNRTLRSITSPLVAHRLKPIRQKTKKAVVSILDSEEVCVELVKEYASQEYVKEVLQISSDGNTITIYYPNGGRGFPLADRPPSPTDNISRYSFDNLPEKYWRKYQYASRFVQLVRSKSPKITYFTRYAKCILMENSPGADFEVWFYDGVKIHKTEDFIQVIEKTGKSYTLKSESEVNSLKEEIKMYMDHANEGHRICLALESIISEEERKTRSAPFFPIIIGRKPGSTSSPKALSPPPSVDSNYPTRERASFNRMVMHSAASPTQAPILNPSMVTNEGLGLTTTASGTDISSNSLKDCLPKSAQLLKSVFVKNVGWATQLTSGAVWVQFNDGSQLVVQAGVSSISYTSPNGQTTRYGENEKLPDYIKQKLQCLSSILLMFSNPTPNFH
How it was run: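 Luminescent ADP-Glo detection quantified ADP production, with ATP depletion for 40 min and detection for 30 min at room temperature. Compound and PLK4 (1.0 nM stock addition) were preincubated 15 min in HEPES pH 7.5 buffer containing MgCl2, EGTA, DTT, Brij-35 and BSA. IC50 values were obtained by four-parameter nonlinear regression.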

human recombinant Aurora B, sequence (Q96GD4 whole entry): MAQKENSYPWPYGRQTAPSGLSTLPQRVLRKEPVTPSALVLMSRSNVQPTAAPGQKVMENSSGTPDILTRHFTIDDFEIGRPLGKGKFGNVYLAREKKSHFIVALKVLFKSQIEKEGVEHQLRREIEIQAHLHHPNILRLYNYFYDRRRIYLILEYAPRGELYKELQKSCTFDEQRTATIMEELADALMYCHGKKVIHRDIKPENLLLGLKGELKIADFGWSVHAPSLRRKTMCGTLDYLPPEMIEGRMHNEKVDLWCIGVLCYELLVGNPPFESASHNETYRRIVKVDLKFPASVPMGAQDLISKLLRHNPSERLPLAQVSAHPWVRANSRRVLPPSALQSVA

Compound | [Aurora B IC50 (nM)]/[PLK4 IC50 (nM)] [1] | IC50 (CHP-134 cells; Homo sapiens, CHP-134, 120 h) [nM] | [Aurora A IC50 (nM)]/[PLK4 IC50 (nM)] [2] | IC50 (human recombinant PLK4) [nM] | IC50 (CHP-134 cells; Homo sapiens, 120 h) [nM] | IC50 (CHP-134 cells) [nM]
COc1ccc2c(c1)[C@]1(C[C@H]1c1ccc3c(Nc4nc(N5CC(O)C5)ncc4Cl)n[nH]c3c1)C(=O)N2 [Example 120, (1R,2S)-2-(3-{[5-chloro-2-(3-hydroxyazetidin-1-yl)pyrimidin-4-yl]amino}-1H-indazol-6-yl)-5′-methoxyspiro[cyclopropane-1,3′-indol]-2′(1′H)-one] | 684.6657 | 10000 | 444.0366 | 3.81 | – | –
COc1ccc2c(c1)[C@]1(C[C@H]1c1ccc3c(Nc4nc(C5COC5)ncc4OC)n[nH]c3c1)C(=O)N2 [Example 119, (1R,2S)-5′-methoxy-2-(3-{[5-methoxy-2-(oxetan-3-yl)pyrimidin-4-yl)amino}-1H-indazol-6-yl)spiro[cyclopropane-1,3′-indol]-2′(1′H)-one] | 973.5516 | 2660 | 870.2770 | 1.59 | – | –
COc1ccc2c(c1)[C@]1(C[C@H]1c1ccc3c(Nc4cc(C(=O)N(C)C)ccc4OC)n[nH]c3c1)C(=O)N2 [Example 176, 4-methoxy-3-({6-[(1R,2S)-5′-methoxy-2′-oxo-1′,2′-dihydrospiro[cyclopropane-1,3′-indol]-2-yl]-1H-indazol-3-yl}amino)-N,N-dimethylbenzamide] | 1300.3869 | 1550 | 1725.2902 | 2.84 | – | –
COc1ccc2c(c1)[C@]1(C[C@H]1c1ccc3c(Nc4ncc(S(C)(=O)=O)cc4OC)n[nH]c3c1)C(=O)N2 [Example 193, (1R,2S)-2-(3-{[5-(methanesulfonyl)-3-methoxypyridin-2-yl]amino}-1H-indazol-6-yl)-5′-methoxyspiro[cyclopropane-1,3′-indol]-2′(1′H)-one] | 138.8889 | 390 | 1463.8448 | 1.13 | – | –
CCOc1nc(S(C)(=O)=O)ccc1Nc1n[nH]c2cc([C@@H]3C[C@@]34C(=O)Nc3ccc(OC)cc34)ccc12 [Example 202, (1R,2S)-2-(3-{[2-ethoxy-6-(methanesulfonyl)pyridin-3-yl]amino}-1H-indazol-6-yl)-5′-methoxyspiro[cyclopropane-1,3′-indol]-2′(1′H)-one] | 321.4179 | 422 | 1031.3433 | 2.68 | – | –
COc1ccc2c(c1)[C@]1(C[C@H]1c1ccc3c(Nc4nc(Cl)ncc4OC)n[nH]c3c1)C(=O)N2 [Example 10, (1R,2S)-2-{3-[(2-Chloro-5-methoxypyrimidin-4-yl)amino]-1H-indazol-6-yl}-5′-methoxyspiro[cyclopropane-1,3′-indol]-2′(1′H)-one] | 103.0876 | 438 | 954.6314 | 1.59 | – | –
COc1ccc2c(c1)[C@]1(C[C@H]1c1ccc3c(Nc4cc(C(C)(C)O)cnc4OC)n[nH]c3c1)C(=O)N2 [Example 226, (1R,2S)-2-(3-{[5-(2-hydroxypropan-2-yl)-2-melhoxypyridin-3-yl]amino}-1H-indazol-6-yl)-5′-methoxyspiro[cyclopropane-1,3′-indol]-2′(1′H)-one] | 474.6155 | 2150 | 2759.6376 | 4.75 | – | –
COc1ccc2c(c1)[C@]1(C[C@H]1c1ccc3c(Nc4nc(C)ncc4OCC4CC4)n[nH]c3c1)C(=O)N2 [Example 146, (1R,2S)-2-(3-{[5-(cyclopropylmethoxy)-2-methylpyrimidin-4-yl]amino}-1H-indazol-6-yl)-5′-methoxyspiro[cyclopropane-1,3′-indol]-2′(1′H)-one] | 745.8082 | 655 | 3512.4078 | 1.49 | – | –
COc1ccc2c(c1)[C@]1(C[C@H]1c1ccc3c(Nc4nc(C#N)nc(N5CCOCC5)c4OC)n[nH]c3c1)C(=O)N2 [Example 61, 5-methoxy-4-({6-[(1R,2S)-5′-methoxy-2′-oxo-1’,2′-dihydrospiro[cyclopropane-1,3′-indol]-2-yl]-1H-indazol-3-yl}amino)-6-(morpholin-4-yl)pyrimidme-2-carbonitrile] | 955.0539 | – | 588.8148 | 9.74 | 2380 | –
COc1ccc2c(c1)[C@]1(C[C@H]1c1ccc3c(Nc4ccc(C(=O)N(C)C)nc4OC)n[nH]c3c1)C(=O)N2 [Example 166, 6-methoxy-5-({6-[(1R,2S)-5′-methoxy-2′-oxo-1′,2′-dihydrospiro[cyclopropane-1,3′-indol]-2-yl]-1H-indazol-3-yl}amino)-N,N-dimethylpyridine-2-carboxamide] | 68.4539 | 80.6 | 1151.3716 | 0.802 | – | –
COc1ccc2c(c1)[C@]1(C[C@H]1c1cc3[nH]nc(Nc4nc(C)ncc4OC)c3cc1F)C(=O)N2 [Example 144, (1R,2R)-2-{5-fluoro-3-[(5-methoxy-2-methylpyrimidin-4-yl)amino]-1H-indazol-6-yl}-5′-methoxyspiro[cyclopropane-1,3′-indol]-2′(1′H)-one] | 61.4367 | 750 | 852.7955 | 1.41 | – | –
COc1ccc2c(c1)[C@]1(C[C@H]1c1ccc3c(Nc4ccc(C(=O)N(C5CC5)C5CC5)nc4OC)n[nH]c3c1)C(=O)N2 [Example 243, N,N-dicyclopropyl-6-methoxy-5-({6-[(1R,2S)-5′-methoxy-2′-oxo-1′,2′-dihydrospiro[cyclopropane-1,3′-indol]-2-yl]-1H-indazol-3-yl}amino)pyridine-2-carboxamide] | 164.5778 | 188 | 479.1122 | 1.15 | – | –
COc1ccc2c(c1)[C@]1(C[C@H]1c1ccc3c(Nc4ccc([S+](C)[O-])nc4OC)n[nH]c3c1)C(=O)N2 (single isomer, unassigned) [Example 239] | 466.8047 | – | 1429.5857 | 1.69 | – | 949
COc1ccc2c(c1)[C@]1(C[C@H]1c1ccc3c(Nc4ccc(C(=O)NC(C)C)nc4OC)n[nH]c3c1)C(=O)N2 [Example 231, 6-methoxy-5-({6-[(1R,2S)-5′-methoxy-2′-oxo-1′,2′-dihydrospiro[cyclopropane-1,3′-indol]-2-yl]-1H-indazol-3-yl}amino)-N-(propan-2-yl)pyridine-2-carboxamide] | 316.7307 | 397 | 4955.7692 | 1.56 | – | –
CCOc1cc(C(=O)N(C)C)cnc1Nc1n[nH]c2cc([C@@H]3C[C@@]34C(=O)Nc3ccc(OC)cc34)ccc12 [Example 203, 5-ethoxy-6-({6-[(1R,2S)-5′-methoxy-2′-oxo-1’,2′-dihydrospiro[cyclopropane-1,3′-indol]-2-yl]-1H-indazol-3-yl}amino)-N,N-dimethylpyridine-3-carboxamide] | 333.7812 | 324 | 2922.2649 | 1.04 | – | –
COc1ccc2c(c1)[C@]1(C[C@H]1c1ccc3c(Nc4nc(C(C)C)nc(N5CCOCC5)c4OC)n[nH]c3c1)C(=O)N2 [Example 85, (1R,2S)-5′-methoxy-2-(3-{[5-methoxy-6-(morpholin-4-yl)-2-(propan-2-yl)pyrimidin-4-yl]amino}-1H-indazol-6-yl)spiro[cyclopropane-1,3′-indol]-2′(1′H)-one] | 3067.539 | 107 | 5554.974 | 1.91 | – | –
COc1ccc2c(c1)[C@]1(C[C@H]1c1ccc3c(Nc4nc(C5COC5)ncc4Cl)n[nH]c3c1)C(=O)N2 [Example 118, (1R,2S)-2-(3-{[5-chloro-2-(oxetan-3-yl)pyrimidin-4-yl]amino}-1H-indazol-6-yl)-5′-methoxyspiro[cyclopropane-1,3′-indol]-2′(1′H)-one] | 902.3357 | 2360 | 457.0413 | 7.32 | – | –
COc1ccc2c(c1)[C@]1(C[C@H]1c1ccc3c(Nc4nc(C)ncc4OCC(F)(F)F)n[nH]c3c1)C(=O)N2 [Example 149, (1R,2S)-5′-methoxy-2-(3-{[2-methyl-5-(2,2,2-trifluoroethoxy)pyrimidin-4-yl]amino}-1H-indazol-6-yl)spiro[cyclopropane-1,3′-indol]-2′(1′H)-one] | 879.4799 | 844 | 3193.7837 | 3.15 | – | –
